Assay results taken from PubChem BioAssay AID1845219 (Molecular Pharmacology Branch, DTP, NCI, 2023).

Test system: SYO-1 tumor spheroids, viability % test/control
Test: Anticancer human tumor SYO-1 cell line growth inhibition;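 note: spheroids exposed to agents for 7 days before viability read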;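 for viability, T/C: 100% = DMSO vehicle control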
Details: spheroids with HUVEC and MSC; for IC50: curve of first compound; for viability, T/C: stronger effect = lower value
Summary of the method: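 Complex spheroids of malignant cells with endothelial cells and mesenchymal stem cells; agents alone or combined, from near clinical Cmax (or 10 microM if unknown) down in half-log steps, 0.25% DMSO final.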

[1] = second compound 1 µM, first compound 0.0316 µM
[2] = second compound 1 µM, first compound 0.1 µM
[3] = second compound 1 µM, first compound 0.316 µM
[4] = second compound 1 µM, first compound 1 µM
[5] = second compound 1 µM, first compound 3.16 µM
[6] = second compound 1 µM, first compound 10 µM
[7] = second compound 3.16 µM, first compound 0.0316 µM
[8] = second compound 3.16 µM, first compound 0.1 µM
[9] = second compound 3.16 µM, first compound 0.316 µM
[10] = second compound 3.16 µM, first compound 1 µM
[11] = second compound 3.16 µM, first compound 3.16 µM
[12] = second compound 3.16 µM, first compound 10 µM
[13] = second compound 10 µM, first compound 0.0316 µM
[14] = second compound 10 µM, first compound 0.1 µM
[15] = second compound 10 µM, first compound 0.316 µM
[16] = second compound 10 µM, first compound 1 µM
[17] = second compound 10 µM, first compound 3.16 µM
[18] = second compound 10 µM, first compound 10 µM
[19] = second compound 31.6 µM, first compound 0.0316 µM
[20] = second compound 31.6 µM, first compound 0.1 µM
[21] = second compound 31.6 µM, first compound 0.316 µM
[22] = second compound 31.6 µM, first compound 1 µM
[23] = second compound 31.6 µM, first compound 3.16 µM
[24] = second compound 31.6 µM, first compound 10 µM
[25] = second compound 100 µM, first compound 0.0316 µM
[26] = second compound 100 µM, first compound 0.1 µM
[27] = second compound 100 µM, first compound 0.316 µM
[28] = second compound 100 µM, first compound 1 µM
[29] = second compound 100 µM, first compound 3.16 µM
[30] = second compound 100 µM, first compound 10 µM

Row | Compound | IC50 (second compound 1 µM) [µM] | IC50 (second compound 3.16 µM) [µM] | IC50 (second compound 10 µM) [µM] | IC50 (second compound 31.6 µM) [µM] | IC50 (second compound 100 µM) [µM] | viability, T/C [1] [%] | viability, T/C [2] [%] | viability, T/C [3] [%] | viability, T/C [4] [%] | viability, T/C [5] [%] | viability, T/C [6] [%] | viability, T/C [7] [%] | viability, T/C [8] [%] | viability, T/C [9] [%] | viability, T/C [10] [%] | viability, T/C [11] [%] | viability, T/C [12] [%] | viability, T/C [13] [%] | viability, T/C [14] [%] | viability, T/C [15] [%] | other results
1 | CC(C)n1c(=O)n(C)c2cnc3cc(F)c(-c4ccc(OCCCN5CCCCC5)nc4)cc3c21 + Cn1nnc2c(C(N)=O)ncn2c1=O | > 10 | > 10 | 9.26 | 7.88 | > 10 | 100 | 101 | 103 | 103 | 101 | 59.1 | 105 | 104 | 106 | 104 | 103 | 52 | 105 | 100 | 103 | viability, T/C [16]: 108%; viability, T/C [17]: 102%; viability, T/C [18]: 46.3%; viability, T/C [19]: 106%; viability, T/C [20]: 113%; viability, T/C [21]: 106%; viability, T/C [22]: 115%; viability, T/C [23]: 104%; viability, T/C [24]: 35.8%; viability, T/C [25]: 108%; viability, T/C [26]: 112%; viability, T/C [27]: 106%; viability, T/C [28]: 96.2%; viability, T/C [29]: 103%; viability, T/C [30]: 73%
2 | CC1COCCN1c1cc(-c2ccnn2C)c2ccnc(-c3ccn[nH]3)c2n1 (stereo not given) + Cn1nnc2c(C(N)=O)ncn2c1=O | < 0.0316 | < 0.0316 | < 0.0316 | < 0.0316 | < 0.0316 | 41.1 | 5.35 | 2.75 | 1.62 | 0.73 | 0.7 | 38.4 | 4.75 | 3.22 | 1.73 | 7.91 | 20 | 20.3 | 3.73 | 2.69 | viability, T/C [16]: 1.48%; viability, T/C [17]: 5.25%; viability, T/C [18]: 21.1%; viability, T/C [19]: 11.1%; viability, T/C [20]: 10.2%; viability, T/C [21]: 2.45%; viability, T/C [22]: 1.18%; viability, T/C [23]: 7.18%; viability, T/C [24]: 6.71%; viability, T/C [25]: 2.97%; viability, T/C [26]: 2.88%; viability, T/C [27]: 1.91%; viability, T/C [28]: 1.24%; viability, T/C [29]: 0.77%; viability, T/C [30]: 0.75%
3 | COc1cc(C)[nH]c(=O)c1CN1CCc2c(Cl)cc(C(OC)C3COC3)c(Cl)c2C1=O (stereo not given) + Cn1nnc2c(C(N)=O)ncn2c1=O | > 10 | > 10 | > 10 | > 10 | 0.697 | 110 | 108 | 97.7 | 86.7 | 81.1 | 73.8 | 110 | 107 | 99.5 | 89.1 | 77 | 67.8 | 108 | 107 | 97.6 | viability, T/C [16]: 89.7%; viability, T/C [17]: 76.2%; viability, T/C [18]: 71.6%; viability, T/C [19]: 119%; viability, T/C [20]: 111%; viability, T/C [21]: 95.1%; viability, T/C [22]: 80.8%; viability, T/C [23]: 69.6%; viability, T/C [24]: 62.4%; viability, T/C [25]: 106%; viability, T/C [26]: 102%; viability, T/C [27]: 69.7%; viability, T/C [28]: 40.5%; viability, T/C [29]: 41.7%; viability, T/C [30]: 35.6%
4 | COc1ccc([C@@H](O)c2cc(-c3ncnc4cc(N5CCOCC5)ccc34)c(F)cc2Cl)nn1 + Cn1nnc2c(C(N)=O)ncn2c1=O | 4.95 | 4.59 | 4.93 | 4.12 | 1.97 | 107 | 112 | 112 | 107 | 77.3 | 7.18 | 101 | 106 | 108 | 105 | 68.3 | 11.9 | 108 | 108 | 110 | viability, T/C [16]: 107%; viability, T/C [17]: 74.6%; viability, T/C [18]: 10.7%; viability, T/C [19]: 116%; viability, T/C [20]: 110%; viability, T/C [21]: 111%; viability, T/C [22]: 109%; viability, T/C [23]: 59.4%; viability, T/C [24]: 18.4%; viability, T/C [25]: 113%; viability, T/C [26]: 116%; viability, T/C [27]: 107%; viability, T/C [28]: 80.2%; viability, T/C [29]: 29%; viability, T/C [30]: 2.71%
5 | Cc1cc(C)c(CNC(=O)c2cc(-c3ccc(CN4CCOCC4)cc3)cc3c2cnn3C2CCCC2)c(=O)[nH]1 + Cn1nnc2c(C(N)=O)ncn2c1=O | > 10 | > 10 | > 10 | > 10 | 7.99 | 106 | 105 | 110 | 104 | 106 | 97 | 103 | 106 | 103 | 104 | 105 | 89.6 | 103 | 106 | 106 | viability, T/C [16]: 108%; viability, T/C [17]: 101%; viability, T/C [18]: 71.2%; viability, T/C [19]: 106%; viability, T/C [20]: 108%; viability, T/C [21]: 107%; viability, T/C [22]: 111%; viability, T/C [23]: 105%; viability, T/C [24]: 74.6%; viability, T/C [25]: 107%; viability, T/C [26]: 111%; viability, T/C [27]: 107%; viability, T/C [28]: 101%; viability, T/C [29]: 76.1%; viability, T/C [30]: 43.7%
6 | [2H]c1nc(C)nc([2H])c1-c1cc(NC[C@@H](C)c2cccc3c(C(=O)NC)ccnc23)ncn1 + Cn1nnc2c(C(N)=O)ncn2c1=O | > 10 | > 10 | > 10 | > 10 | > 10 | 105 | 105 | 102 | 98.9 | 93.3 | 83 | 110 | 113 | 105 | 96.5 | 90 | 84.8 | 109 | 106 | 106 | viability, T/C [16]: 96.1%; viability, T/C [17]: 90.2%; viability, T/C [18]: 88.4%; viability, T/C [19]: 115%; viability, T/C [20]: 109%; viability, T/C [21]: 110%; viability, T/C [22]: 102%; viability, T/C [23]: 96.4%; viability, T/C [24]: 94%; viability, T/C [25]: 113%; viability, T/C [26]: 115%; viability, T/C [27]: 111%; viability, T/C [28]: 110%; viability, T/C [29]: 93.7%; viability, T/C [30]: 94.3%
